Where “and” joins values, the source holds several entries; their conditions need not be identical. Identical values can stand only once. Like-named read-outs stand apart in the source and are kept apart here.
Assays:
[1] = molecular target: SARS-CoV-2 NSP3 macrodomain (Mac1) (Severe acute respiratory syndrome coronavirus 2, UniProt P0DTD1); assay: biochemical; type: binding; conditions: for IC50: dose-response, read-out: SARS CoV-2 macrodomain HTRF assay: IC50; for SARS CoV-2 macrodomain HTRF assay: Hillslope: dose-response fit
[2] = molecular target: SARS-CoV-2 NSP3 macrodomain (Mac1), P43 crystal form (Severe acute respiratory syndrome coronavirus 2, UniProt P0DTD1); type: binding; conditions: for 1-BDC: PanDDA background density correction; for Total number of conformations: ligand conformations modeled in Mac1 crystal structure; for X-ray crystallography: Binding site: site where the ligand is bound in the X-ray crystal structure
[3] = crystal soak concentration 10 mM, DMSO background map, event 1
[4] = crystal soak concentration 10 mM, P43 crystals
[5] = crystal soak concentration 10 mM, DMSO background map
[6] = occupancy estimate from PanDDA BDC
[7] = crystal soak 10 mM, P43 crystals
[8] = crystal soak 10 mM, DMSO background map
[9] = occupancy estimate from PanDDA 1-BDC
[10] = crystal soak, soak concentration 10 mM
[11] = crystal soak, soak concentration 10 mM, TRUE = ligand hit
[12] = soak concentration 10 mM, DMSO background map
[13] = X-ray crystal structure determined (TRUE)
[14] = site of ligand in X-ray crystal structure

In the case of `Cc1c[nH]c2ncnc(NCC3(O)CCC(O)CC3)c12` (stereo not shown) [AVI-4329], the IC50 [1] is reported as greater than 1000 µM, the “Occupancy difference (refined_occupancy - 2*(1-BDC))” value (shortened to “Occupancy difference”) [2] is reported as 12 and the “Refined ligand occupancy (%)” value [2] is reported as 30%. For the same molecule, the 1-BDC [2] was 0.09, the “PanDDA run, DMSO background map: 1-BDC” value [2, 3] was 0.09 and 0.11 and the “Pandda run, overall: Hit” value [2, 4] was “TRUE”. The “Pandda run, overall: Modeled” value [2, 4] was “TRUE”, the “Pandda run, overall: Modeling comment” value [2, 4] was “Duplicate, not modeled” and the “PanDDA run, DMSO background map: Hit” value [2, 5] was “TRUE”. The “PanDDA run, DMSO background map: Modeled” value [2, 5] was “TRUE”, the “Total number of conformations” value [2] was 2 and the “2*(1-BDC) (%)” value [2, 6] was 18%. The “X-ray crystallography: Binding site” value [2] was “Adenosine”.
`OC1(CNc2ncnc3[nH]ccc23)CCC(F)(F)CC1` [AVI-4308] was tested, and the Hill slope ([1]; HTRF dose-response fit, Mac1) was 1.2, the “SARS CoV-2 macrodomain HTRF assay: Hillslope” value [1] was 1.2 and the “Occupancy difference” value [2] was 0. For the same molecule, the “Refined ligand occupancy (%)” value [2] was 30%, the “PanDDA run, DMSO background map: 1-BDC” value ([2]; DMSO background map, event 1) was 0.16 and the 1-BDC [2] was 0.15. The “Hit (PanDDA run, overall)” value [2, 7] was “TRUE”, the “Hit (PanDDA run, DMSO background map)” value [2, 8] was “TRUE” and the “1-BDC (PanDDA run, DMSO background map)” value ([2]; crystal soak 10 mM, DMSO background map, event 1) was 0.15. The “Total number of conformations” value [2] was 1, the “2*(1-BDC) (%)” value [2, 6] was 30% and the “X-ray crystallography: Binding site” value [2] was “Adenosine”.
With `OC1(CNc2ncnc3[nH]ccc23)CCSCC1` [AVI-4319] the Hill slope ([1]; HTRF dose-response fit, Mac1) was 1.2, the “SARS CoV-2 macrodomain HTRF assay: Hillslope” value [1] was 1.2 and the “Occupancy difference” value [2] was 0. For the same molecule, the “Refined ligand occupancy (%)” value [2] was 32%, the “PanDDA run, DMSO background map: 1-BDC” value ([2]; DMSO background map, event 1) was 0.16 and 0.17 and the 1-BDC [2] was 0.16. For the same molecule, the “Total number of conformations” value [2] was 1, the “2*(1-BDC) (%)” value [2, 6] was 32% and the “X-ray crystallography: Binding site” value [2] was “Adenosine”.
For `CC(CNC(=O)c1ccc2c(c1)CCC(=O)N2)C(=O)O` (stereo not shown) [AVI-328], the Hill slope ([1]; Dose-response, SARS CoV-2 macrodomain HTRF assay) was 1.3, the Hill slope ([1]; HTRF dose-response fit, Mac1) was 1.3 and the inhibition at 200 µM ([1]; Single dose, 200 μM, mean of three technical replicates, read-out: Average % competition) was 50%. The inhibition at 200 µM ([1]; preliminary screen, compound at 200 μM, mean of 3-4 technical replicates, read-out: % competition in HTRF assay) was 50%, the “PanDDA run, DMSO background map: 1-BDC” value ([2]; DMSO background map, event 1) was 0.25 and the 1-BDC [2] was 0.11. The X-ray crystal structure ([2]; TRUE = crystal structure with ligand determined) was “TRUE”, the “PanDDA run, DMSO background map: 1-BDC” value [2, 3] was 0.11 and 0.1 and the “Pandda run, overall: Hit” value [2, 4] was “TRUE”. For the same molecule, the “Pandda run, overall: Modeled” value [2, 4] was “TRUE”, the “Pandda run, overall: Modeling comment” value [2, 4] was “Duplicate, not modeled” and the “PanDDA run, DMSO background map: Hit” value [2, 5] was “TRUE”. For the same molecule, the “PanDDA run, DMSO background map: Modeled” value [2, 5] was “TRUE”, the “Total number of conformations” value [2] was 2 and the “2*(1-BDC) (%)” value [2, 9] was 22%. The Binding site ([2]; site of Mac1 where ligand bound in crystal structure) was “Adenosine”.
Work on `FC(F)(F)C1CCCN1c1ncnc2[nH]ccc12` (stereo not shown) [AVI-5996] yielded an IC50 [1] greater than 1000 µM.
For `Cc1c[nH]c2ncnc(NCC3(O)CCS(=O)(=O)CC3)c12` [AVI-4199], the IC50 [1] was greater than 1000 µM.
In the case of `OC1(CNc2ncnc3[nH]ccc23)CCC2(CC1)OCCO2` [AVI-4315], the Hill slope ([1]; HTRF dose-response fit, Mac1) is reported as 1.2 and the “SARS CoV-2 macrodomain HTRF assay: Hillslope” value [1] is reported as 1.2.
In the case of `O=S1(=O)CCC(O)(CNc2ncnc3[nH]ccc23)CC1` [AVI-4316], the IC50 [1] is reported as greater than 1000 µM.
With `CC(Nc1ncnc2[nH]ccc12)C1(O)CCCCC1` (stereo not shown) [AVI-4321] the Hill slope ([1]; HTRF dose-response fit, Mac1) was 1.2 and the “SARS CoV-2 macrodomain HTRF assay: Hillslope” value [1] was 1.2.
For `OCC1CCC2(CCOCC2)CN1c1ncnc2[nH]ccc12` (stereo not shown) [AVI-4065], the Hill slope ([1]; HTRF dose-response fit, Mac1) was 1.2 and the “SARS CoV-2 macrodomain HTRF assay: Hillslope” value [1] was 1.2.
`Cc1nn(C)cc1C1CCC(CO)N1c1ncnc2[nH]ccc12` (stereo not shown) [AVI-3733] was tested, and the 1-BDC [2] was 0.1, the “Pandda run, overall: Hit” value [2, 7] was “TRUE” and the “Pandda run, overall: Modeled” value [2, 7] was “TRUE”. For the same molecule, the “PanDDA run, DMSO background map: 1-BDC” value [2, 8] was 0.1, the “PanDDA run, DMSO background map: Hit” value [2, 8] was “TRUE” and the “Total number of conformations” value [2] was 1. The “2*(1-BDC) (%)” value [2, 9] was 20% and the “X-ray crystallography: Binding site” value [2] was “Adenosine”.
`O=C(O)C(F)(F)F.OC1c2ccccc2CC1Nc1ncnc2[nH]ccc12` (stereo not shown) [AVI-3634] was tested, and the “Pandda run, overall: Modeling comment” value [2, 10] was “TFA only”.
Work on `Cc1c[nH]c2ncnc(NCC3(O)CC[S+]([O-])CC3)c12` (stereo not shown) [AVI-4198] yielded an IC50 [1] greater than 1000 µM.
`O[C@@H]1CN(c2ncnc3[nH]ccc23)C[C@H]1F` [AVI-616] was tested, and the 1-BDC [2] was 0.2, the “Pandda run, overall: Modeled” value [2, 10] was “TRUE” and the “Pandda run, overall: Hit” value [2, 11] was “TRUE”. The X-ray crystal structure ([2]; crystal structure with Mac1 determined (TRUE)) was “TRUE”, the “Total number of conformations” value [2] was 1 and the “2*(1-BDC) (%)” value [2, 9] was 40%. The Binding site ([2]; site of ligand in Mac1 crystal structure) was “Adenosine”, the “PanDDA run, DMSO background map: 1-BDC” value [2, 12] was 0.2 and the “PanDDA run, DMSO background map: Hit” value [2, 12] was “TRUE”.
In the case of `OCC(O)C1CCCN1c1ncnc2[nH]ccc12` (stereo not shown) [AVI-3701], the 1-BDC [2] is reported as 0.18, the “Pandda run, overall: Modeled” value [2, 10] is reported as “TRUE” and the “Pandda run, overall: Hit” value [2, 11] is reported as “TRUE”. The “Total number of conformations” value [2] was 1, the “2*(1-BDC) (%)” value [2, 9] was 36% and the “X-ray crystallography: Binding site” value [2] was “Adenosine”. The “PanDDA run, DMSO background map: 1-BDC” value [2, 12] was 0.18 and the “PanDDA run, DMSO background map: Hit” value [2, 12] was “TRUE”.
In the case of `OCC(Nc1ncnc2[nH]ccc12)C1CCC1` (stereo not shown) [AVI-3638], the 1-BDC [2] is reported as 0.13, the X-ray crystal structure [2, 13] is reported as “TRUE” and the “Pandda run, overall: Hit” value [2, 7] is reported as “TRUE”. For the same molecule, the “Pandda run, overall: Modeled” value [2, 7] was “TRUE”, the “PanDDA run, DMSO background map: 1-BDC” value [2, 8] was 0.13 and the “PanDDA run, DMSO background map: Hit” value [2, 8] was “TRUE”. The “Total number of conformations” value [2] was 1, the “2*(1-BDC) (%)” value [2, 9] was 26% and the Binding site [2, 14] was “Adenosine”.
With `Cn1cc(CC(CO)Nc2ncnc3[nH]ccc23)cn1` (stereo not shown) [AVI-3657] the 1-BDC [2] was 0.15, the X-ray crystal structure [2, 13] was “TRUE” and the “Pandda run, overall: Hit” value [2, 7] was “TRUE”. The “Pandda run, overall: Modeled” value [2, 7] was “TRUE”, the “PanDDA run, DMSO background map: 1-BDC” value [2, 8] was 0.15 and the “PanDDA run, DMSO background map: Hit” value [2, 8] was “TRUE”. For the same molecule, the “Total number of conformations” value [2] was 1, the “2*(1-BDC) (%)” value [2, 9] was 30% and the Binding site [2, 14] was “Adenosine”.
In the case of `OCC(CC(F)(F)F)Nc1ncnc2[nH]ccc12` (stereo not shown) [AVI-3637], the 1-BDC [2] is reported as 0.23, the X-ray crystal structure [2, 13] is reported as “TRUE” and the “Pandda run, overall: Modeled” value [2, 10] is reported as “TRUE”. For the same molecule, the “Pandda run, overall: Hit” value [2, 11] was “TRUE”, the “Total number of conformations” value [2] was 1 and the “2*(1-BDC) (%)” value [2, 9] was 46%. For the same molecule, the Binding site [2, 14] was “Adenosine”, the “PanDDA run, DMSO background map: 1-BDC” value [2, 12] was 0.23 and the “PanDDA run, DMSO background map: Hit” value [2, 12] was “TRUE”.
In the case of `OCC1CC2(CCC2)CN1c1ncnc2[nH]ccc12` (stereo not shown) [AVI-3728], the 1-BDC [2] is reported as 0.24, the “Pandda run, overall: Modeled” value [2, 10] is reported as “TRUE” and the “Pandda run, overall: Modeling comment” value [2, 10] is reported as “Distal site, weak density, not modeled”. For the same molecule, the “Pandda run, overall: Hit” value [2, 11] was “TRUE”, the “Total number of conformations” value [2] was 2 and the “2*(1-BDC) (%)” value [2, 9] was 48%. The “X-ray crystallography: Binding site” value [2] was “Adenosine”, the “PanDDA run, DMSO background map: 1-BDC” value [2, 12] was 0.24 and the “PanDDA run, DMSO background map: Hit” value [2, 12] was “TRUE”.
In the case of `O=C(O)C(F)(F)F.OC[C@H]1CC2(CN1c1ncnc3[nH]ccc13)OCCO2` [AVI-3702], the 1-BDC [2] is reported as 0.21, the “Pandda run, overall: Modeled” value [2, 10] is reported as “TRUE” and the “Pandda run, overall: Hit” value [2, 11] is reported as “TRUE”. For the same molecule, the “Total number of conformations” value [2] was 1, the “2*(1-BDC) (%)” value [2, 9] was 42% and the “X-ray crystallography: Binding site” value [2] was “Adenosine”. The “PanDDA run, DMSO background map: 1-BDC” value [2, 12] was 0.21 and the “PanDDA run, DMSO background map: Hit” value [2, 12] was “TRUE”.
`Cc1ccccc1CC(CO)Nc1ncnc2[nH]ccc12` (stereo not shown) [AVI-3674] was tested, and the 1-BDC [2] was 0.19, the X-ray crystal structure [2, 13] was “TRUE” and the “Pandda run, overall: Hit” value [2, 7] was “TRUE”. The “Pandda run, overall: Modeled” value [2, 7] was “TRUE”, the “PanDDA run, DMSO background map: 1-BDC” value [2, 8] was 0.19 and the “PanDDA run, DMSO background map: Hit” value [2, 8] was “TRUE”. The “Total number of conformations” value [2] was 1, the “2*(1-BDC) (%)” value [2, 9] was 38% and the Binding site [2, 14] was “Adenosine”.
`C[C@@H](O)[C@H](CO)Nc1ncnc2[nH]ccc12.O=C(O)C(F)(F)F` [AVI-3730] was tested, and the 1-BDC [2] was 0.14, the X-ray crystal structure [2, 13] was “TRUE” and the “Pandda run, overall: Modeled” value [2, 10] was “TRUE”. The “Pandda run, overall: Hit” value [2, 11] was “TRUE”, the “Total number of conformations” value [2] was 1 and the “2*(1-BDC) (%)” value [2, 9] was 28%. For the same molecule, the Binding site [2, 14] was “Adenosine”, the “PanDDA run, DMSO background map: 1-BDC” value [2, 12] was 0.14 and the “PanDDA run, DMSO background map: Hit” value [2, 12] was “TRUE”.
